Like-named read-outs stand apart in the source and are kept apart here.
Molecular target: T1, c-kit (Homo sapiens, UniProt P10721)
T1 construct: human Mo7e cells which endogenously express c-kit; endogenous in cells; host or cells: human Mo7e cells (promegakaryocytic leukemia line), stimulated with human recombinant SCF
Test: Mo7e cell proliferation assay (SCF dependent proliferation)
Format: cell-based
Outline: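 Human Mo7e cells with endogenous c-kit, proliferation driven by SCF, 384-well format. After 48 h at 37 °C viability read by CellTiter-Glo luminescence. IC50 taken as concentration giving response halfway between baseline and maximum.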

[1] = Table 2, human Mo7e cells stimulated with SCF, 48 hours, CellTiter Glo, 1% FBS, read-out: c-kit (Mo7e)
[2] = Table 1, human Mo7e cells stimulated with SCF, 48 hours, CellTiter Glo, 1% FBS, read-out: c-kit (Mo7e)

T1 sequence (P10721 26-976): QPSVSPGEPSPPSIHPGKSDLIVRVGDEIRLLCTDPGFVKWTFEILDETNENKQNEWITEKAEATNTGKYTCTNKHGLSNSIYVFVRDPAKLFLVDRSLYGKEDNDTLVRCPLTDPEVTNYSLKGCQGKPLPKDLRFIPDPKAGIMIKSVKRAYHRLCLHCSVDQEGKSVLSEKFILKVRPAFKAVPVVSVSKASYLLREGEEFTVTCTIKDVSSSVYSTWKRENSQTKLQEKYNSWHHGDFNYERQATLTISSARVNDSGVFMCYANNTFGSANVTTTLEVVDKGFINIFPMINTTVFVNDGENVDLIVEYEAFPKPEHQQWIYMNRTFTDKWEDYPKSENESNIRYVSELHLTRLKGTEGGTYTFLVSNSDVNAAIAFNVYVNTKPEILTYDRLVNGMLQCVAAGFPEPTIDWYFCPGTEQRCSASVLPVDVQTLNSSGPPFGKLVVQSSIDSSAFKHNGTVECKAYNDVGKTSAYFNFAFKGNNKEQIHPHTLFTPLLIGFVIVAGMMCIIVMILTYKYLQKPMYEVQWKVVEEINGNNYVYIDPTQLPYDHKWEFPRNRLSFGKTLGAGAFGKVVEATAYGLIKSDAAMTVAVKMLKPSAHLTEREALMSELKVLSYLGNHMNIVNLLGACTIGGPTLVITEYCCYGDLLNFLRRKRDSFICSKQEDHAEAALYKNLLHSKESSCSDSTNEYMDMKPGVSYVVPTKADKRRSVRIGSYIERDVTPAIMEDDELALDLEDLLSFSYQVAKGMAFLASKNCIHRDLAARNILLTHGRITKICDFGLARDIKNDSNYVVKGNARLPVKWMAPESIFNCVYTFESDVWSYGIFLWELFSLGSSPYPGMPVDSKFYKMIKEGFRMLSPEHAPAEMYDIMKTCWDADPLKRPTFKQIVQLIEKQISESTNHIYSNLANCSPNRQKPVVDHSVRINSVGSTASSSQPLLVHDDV

Row | IC50 [1] [µM] | Structure (SMILES) | further results
1 | > 10 | COC(=O)N1CC(c2nc(-c3ccc(C)c(NC(=O)c4cnc5ccc(CCCc6nn[nH]n6)cn45)c3)no2)C1 [F310] | 
2 |  | Cc1ccc2ncc(C(=O)Nc3cc(-c4noc(NC5CCOCC5)n4)ccc3C)n2c1 [F82] | IC50 [2]: 0.055 µM
3 | 1.68 | Cc1ccc(-c2noc([C@@H]3C[C@H](O)CN3S(C)(=O)=O)n2)cc1NC(=O)c1cnc2ccc(F)cn12 [F287] | 
4 |  | Cc1ccc(-c2noc([C@@H]3CCN3S(C)(=O)=O)n2)cc1NC(=O)c1cnc2ccccn12 [F25] | IC50 [2]: 0.046 µM
5 |  | Cc1ccc(-c2noc(C3CCCCO3)n2)cc1NC(=O)c1cnc2ccccn12 (stereo not shown) [F8] | IC50 [2]: 0.042 µM
6 |  | Cc1ccc(-c2noc(C[C@@H]3CCN(S(C)(=O)=O)C3)n2)cc1NC(=O)c1cnc2ccccn12 [F38] | IC50 [2]: 0.09 µM
7 |  | COC(=O)N1CC(c2nc(-c3ccc(C)c(NC(=O)c4cnc5ccc(C(F)(F)F)cn45)c3)no2)C1 [F52, methyl 3-(3-(4-methyl-3-(6-(trifluoromethyl)imidazo[1,2-a]pyridine-3-carboxamido)phenyl)-1,2,4-oxadiazol-5-yl)azetidine-1-carboxylate] | IC50 [2]: 0.218 µM
8 | 0.997 | CC(C)(C)OC(=O)N1CC(c2nc(-c3ccc(F)c(NC(=O)c4cnc5ccccn45)c3)no2)C1 [F153] | 
9 | 0.284 | COC(=O)N1CC[C@H](Cc2nc(-c3ccc(C)c(NC(=O)c4cnc5ccccn45)c3)no2)C1 [F205] | 
10 | 0.249 | Cc1ccc(-c2noc(C3CN(S(=O)(=O)C4CCN(C(=O)OC(C)(C)C)C4)C3)n2)cc1NC(=O)c1cnc2ccccn12 (stereo not shown) [F162] | 
11 | 0.426 | Cc1ccc(-c2noc(CCC(=O)N3CCC(F)(F)C3)n2)cc1NC(=O)c1cnc2ccccn12 [F125] | 
12 | 0.672 | Cc1ccc(-c2noc(C3CCC(=O)N3)n2)cc1NC(=O)c1cnc2ccccn12 (stereo not shown) [F192] | 
13 | 1.2 | Cc1ccc(-c2noc(C3CCCNC3)n2)cc1NC(=O)c1cnc2ccccn12 (stereo not shown) [F274] | 
14 |  | COC(=O)N1CC(c2nc(-c3ccc(C)c(NC(=O)c4cnc5ccccn45)c3)no2)C1 [F15, methyl 3-(3-(3-(imidazo[1,2-a]pyridine-3-carboxamido)-4-methylphenyl)-1,2,4-oxadiazol-5-yl)azetidine-1-carboxylate] | IC50 [2]: 0.02 µM
15 |  | Cc1ccc(-c2noc(C3CCCCN3C(=O)OC(C)(C)C)n2)cc1NC(=O)c1cnc2ccccn12 (stereo not shown) [F288] | IC50 (Table 2, values marked *: 20% FBS instead of 1% FBS, read-out: c-kit (Mo7e)): 1.78 µM
16 |  | COC(=O)N1CCC[C@H]1Cc1nc(-c2ccc(C)c(NC(=O)c3cnc4ccccn34)c2)no1 [F40] | IC50 [2]: 0.094 µM
17 | 3.97 | Cc1ccc(-c2noc(C3CN(S(=O)(=O)c4cn(C)cn4)C3)n2)cc1NC(=O)c1cnc2ccccn12 [F301] | 
18 | 2.44 | Cc1ccc(-c2noc(C3CCNC3)n2)cc1NC(=O)c1cnc2ccccn12 (stereo not shown) [F296] | 
19 |  | Cc1ccc(-c2noc([C@H]3CN(S(C)(=O)=O)CCO3)n2)cc1NC(=O)c1cnc2ccccn12 [F37] | IC50 [2]: 0.06 µM
20 | 0.142 | COC(=O)N1CCC(Cc2nc(-c3ccc(C)c(NC(=O)c4cnc5ccccn45)c3)no2)CC1 [F214] | 
21 |  | COC(=O)N1CC(c2nc(-c3ccc(C)c(NC(=O)c4cnc5ccc(COCCF)cn45)c3)no2)C1 [F96] | IC50 [2]: 0.026 µM
22 | 0.465 | Cc1ccc(-c2noc([C@@H]3CCC(=O)N3)n2)cc1NC(=O)c1cnc2ccccn12 [F191] | 
23 | 0.139 | Cc1ccc(-c2noc(C3(NC(=O)OC(C)(C)C)COC3)n2)cc1NC(=O)c1cnc2ccccn12 [F139] | 

Row | IC50 [1] [µM] | Structure (SMILES) | further results
24 | 0.243 | Cc1ccc(-c2noc(C3CCCCN3C)n2)cc1NC(=O)c1cnc2ccccn12 (stereo not shown) [F111] | 
25 | 0.181 | COC(=O)N1CC(c2nc(-c3ccc(C)c(NC(=O)c4cnc5cc(C#N)ccn45)c3)no2)C1 [F235] | 
26 |  | COC(=O)N1CCC(c2nc(-c3ccc(C)c(NC(=O)c4cnc5ccccn45)c3)no2)CC1 [F33] | IC50 [2]: 0.084 µM
27 | 1.37 | Cc1ccn2c(C(=O)Nc3cc(-c4noc(N5CC(S(C)(=O)=O)C5)n4)ccc3C)cnc2c1 [F281] | 
28 | 0.158 | CCCCS(=O)(=O)N1CC(c2nc(-c3ccc(F)c(NC(=O)c4cnc5ccccn45)c3)no2)C1 [F219] | 
29 |  | Cc1ccc(-c2noc(CN3CCC(F)(F)C3)n2)cc1NC(=O)c1cnc2ccccn12 [F29] | IC50 [2]: 0.016 µM
30 | 0.286 | Cc1ccc(-c2noc(C3CCOCC3)n2)cc1NC(=O)c1cnc2ccccn12 [F102] | 
31 | 0.151 | O=C(Nc1cc(-c2noc(C3CN(S(=O)(=O)C(F)F)C3)n2)ccc1F)c1cnc2ccccn12 [F223] | 
32 |  | COC(=O)NC1(c2nc(-c3ccc(C)c(NC(=O)c4cnc5ccccn45)c3)no2)COC1 [F26, methyl (3-(3-(3-(imidazo[1,2-a]pyridine-3-carboxamido)-4-methylphenyl)-1,2,4-oxadiazol-5-yl)oxetan-3-yl)carbamate] | IC50 [2]: 0.103 µM
33 | > 10 | COC(=O)CS(=O)(=O)N1CC(c2nc(-c3ccc(C)c(NC(=O)c4cnc5ccccn45)c3)no2)C1 [F309] | 
34 | 0.472 | CS(=O)(=O)N1CC(c2nc(-c3ccc(F)c(NC(=O)c4cnc5ccccn45)c3)no2)C1 [F154] | 
35 | 0.912 | Cc1ccc(-c2noc(C3CCN(C(=O)OC(C)(C)C)C3)n2)cc1NC(=O)c1cnc2ccccn12 (stereo not shown) [F107] | 
36 |  | Cc1ccc(-c2noc(CN3CCOCC3)n2)cc1NC(=O)c1cnc2ccccn12 [F22, N-(2-methyl-5-(5-(morpholinomethyl)-1,2,4-oxadiazol-3-yl)phenyl)imidazo[1,2-a]pyridine-3-carboxamide] | IC50 [2]: 0.073 µM
37 | 1.25 | Cc1ccc(-c2noc(C3CN(C(=O)OC(C)(C)C)CCO3)n2)cc1NC(=O)c1cnc2ccccn12 (stereo not shown) [F277] | 
38 | > 10 | COC(=O)N1CC(c2nc(-c3ccc(C)c(NC(=O)c4cnc5ccc(CCC(=O)O)cn45)c3)no2)C1 [F307] | 
39 | 0.296 | Cc1ccc(-c2noc([C@@H]3CN(C(=O)OC(C)(C)C)CCO3)n2)cc1NC(=O)c1cnc2ccccn12 [F122] | 
40 | 3.56 | Cc1ccc(-c2nc(C3CN(C(=O)OC(C)(C)C)C3)no2)cc1NC(=O)c1cnc2ccccn12 [F300] | 
41 | 0.103 | COC(=O)NC1(c2nc(-c3ccc(C)c(NC(=O)c4cnc5ccccn45)c3)no2)COC1 [F140] | 
42 |  | Cc1ccc(-c2noc(C3CCC(F)(F)CO3)n2)cc1NC(=O)c1cnc2ccccn12 (stereo not shown) [F10, N-(5-(5-(5,5-difluorotetrahydro-2H-pyran-2-yl)-1,2,4-oxadiazol-3-yl)-2-methylphenyl)imidazo[1,2-a]pyridine-3-carboxamide] | IC50 (c-kit (Mo7e) μM, Table 1, human Mo7e cells stimulated with SCF, 48 hours, CellTiter Glo, 1% FBS): 0.023 µM
43 | 0.452 | Cc1ccc(-c2noc([C@@H]3CCCN3C(=O)OC(C)(C)C)n2)cc1NC(=O)c1cnc2ccccn12 [F176] | 
44 |  | CCCCS(=O)(=O)N1CC(c2nc(-c3ccc(C)c(NC(=O)c4cnc5ccccn45)c3)no2)C1 [F31] | IC50 [2]: 0.054 µM
45 | 0.812 | COC(=O)N1CC(c2nc(-c3ccc(C)c(NC(=O)c4cnc5c(F)cccn45)c3)no2)C1 [F242] | 
46 | 0.129 | Cc1ccn2c(C(=O)Nc3cc(-c4noc(N5CCN6C(=O)OC[C@@H]6C5)n4)ccc3C)cnc2c1 [F255] | 

Row | IC50 [1] [µM] | Structure (SMILES) | further results
47 | 0.523 | COC(=O)N1CC(c2nc(-c3ccc(C)c(NC(=O)c4cnc5ccc(CO)cn45)c3)no2)C1 [F266] | 
48 | 0.421 | COC(=O)N1CC(c2nc(-c3ccc(C)c(NC(=O)c4cnc5ccc(-n6ccnc6)cn45)c3)no2)C1 [F252] | 
49 | 0.684 | Cc1ccc(-c2noc(CNC(=O)C3CCOCC3)n2)cc1NC(=O)c1cnc2ccccn12 [F149] | 
50 | 0.187 | Cc1ccc(-c2noc(CNC(=O)[C@H]3CCCO3)n2)cc1NC(=O)c1cnc2ccccn12 [F146] | 
51 | 8.37 | Cc1ccc(-c2noc(C3C[C@H](O)CN3)n2)cc1NC(=O)c1cnc2ccc(F)cn12 (stereo partly shown) [F306] | 
52 | 1.28 | Cc1cc(F)c(-c2noc(C3CN(C(=O)OC(C)(C)C)C3)n2)cc1NC(=O)c1cnc2ccccn12 [F279] | 
53 | 0.227 | Cc1ccc(-c2noc(C3CCC(O)CO3)n2)cc1NC(=O)c1cnc2ccccn12 (stereo not shown) [F112] | 
54 | 0.127 | Cc1ccc(-c2noc(CN3CC(F)C3)n2)cc1NC(=O)c1cnc2ccccn12 [F130] | 
55 | 1.92 | Cc1ccc(-c2noc(CN3CC(S(C)(=O)=O)C3)n2)cc1NC(=O)c1cnc2ccccn12 [F291] | 
56 | 0.738 | Cc1ccc(-c2noc(CN3CC(O)C3)n2)cc1NC(=O)c1cnc2ccccn12 [F131] | 
57 | 0.75 | Cc1ccc(-c2noc(C3CN(C(=O)OCCCN4CCOCC4)C3)n2)cc1NC(=O)c1cnc2ccccn12 [F135] | 
58 | 0.169 | Cc1ccc(-c2noc(C[C@H]3CCN(S(C)(=O)=O)C3)n2)cc1NC(=O)c1cnc2ccccn12 [F206] | 
59 | 0.124 | CCCS(=O)(=O)N1CC(c2nc(-c3ccc(F)c(NC(=O)c4cnc5ccccn45)c3)no2)C1 [F156] | 
60 | 1.65 | Cc1ccc(-c2noc(C[C@H]3CCNC3)n2)cc1NC(=O)c1cnc2ccccn12 [F284] | 
61 | 1.24 | Cc1ccc(-c2noc([C@@H]3COCCN3)n2)cc1NC(=O)c1cnc2ccccn12 [F276] | 
62 |  | Cc1ccc(Nc2noc([C@@H]3CCCO3)n2)cc1NC(=O)c1cnc2ccccn12 [F72] | IC50 [2]: 0.006 µM
63 |  | Cc1ccc(-c2noc(NC3CCOCC3)n2)cc1NC(=O)c1cnc2cc(F)ccn12 [F81] | IC50 [2]: 0.084 µM
64 |  | COC(=O)N1CC(c2nc(-c3ccc(C)c(NC(=O)c4cnn5ccccc45)c3)no2)C1 [F48] | IC50 [2]: 0.08 µM
65 |  | CCCS(=O)(=O)N1CC(c2nc(-c3ccc(C)c(NC(=O)c4cnc5ccccn45)c3)no2)C1 [F16] | IC50 [2]: 0.035 µM
66 | 0.362 | Cc1ccc(-c2noc([C@@H]3COCCN3S(C)(=O)=O)n2)cc1NC(=O)c1cnc2ccccn12 [F165] | 
67 |  | COC(=O)N1CC(c2nc(-c3cc(NC(=O)c4cnc5ccccn45)c(C)cc3C)no2)C1 [F79, methyl 3-(3-(5-(imidazo[1,2-a]pyridine-3-carboxamido)-2,4-dimethylphenyl)-1,2,4-oxadiazol-5-yl)azetidine-1-carboxylate] | IC50 [2]: 0.037 µM

From patent publication US8754071B2 (priority 2011, dated 2014)
